From the METLIN SMRT retention time set (Domingo-Almenara et al. 2019)

Test: gradient 5% acetonitrile 3 min, to 50% in 2 min, to 85% in 15 min, held 3 min, 100 µL/min
Conditions: column: Zorbax Extend-C18 2.1 x 50 mm; eluents: water / acetonitrile, 0.1% formic acid
Summary of the method: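 Data were gathered over 3 months by HPLC coupled to a quadrupole time-of-flight mass spectrometer, operated in positive and negative ionization mode. Mixtures of ~100 pure standards ran on a Zorbax Extend-C18 column (2.1 × 50 mm, 1.8 μm) at 100 μL/min, with water and acetonitrile each containing 0.1% formic acid and dead and dwell volumes of 40 μL and 900 μL. Retention time was read from adduct peaks picked by computer and checked manually.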

SMILES | RP-LC retention time
COc1cc(-c2ccc(Nc3ccccc3C(=O)O)c(OC)c2)ccc1Nc1ccccc1C(=O)O | 1290 s
Cc1cnn(Cc2nc(-c3ccc(NC(=O)CC4CCCC4)cc3)oc2C)c1 | 930 s
COc1cc(OC)c(NC(=O)N2CCCC2c2nncn2C2CCCC2)cc1Cl (stereo not drawn) | 668 s
CC(C)(C)c1csc(-c2csc(S(=O)(=O)N3CCN(c4ccccn4)CC3)c2)n1 | 974 s
COc1cc(OC)c2c(C)cc(=O)oc2c1 | 809 s
COc1ccc2[nH]cc(CCNC(=O)CC3CCN(C(=O)C4CCCCC4)CC3)c2c1 | 757 s
COc1ccccc1CCNC(=O)Cc1csc(NC(=O)c2ccco2)n1 | 700 s
CCCSCCCNC(=O)Cn1cnc2nc3c(cc2c1=O)CC(C)CC3 (stereo not drawn) | 778 s
CCCCC(=O)Nc1ccc2nc(N3CCN(c4ccccc4)CC3)cc(C(=O)O)c2c1 | 672 s
COCc1nc2cccnc2n1C1CCN(C(=O)Nc2ccc(Br)cc2)CC1 | 747 s
CCCCc1ccc(NC(=O)N2CCCC2c2nncn2C2CCCC2)cc1 (stereo not drawn) | 864 s
CCS(=O)(=O)N1CC(=O)N(c2cccc(Cl)c2C)C(C)(C(=O)NCc2ccccc2)C1 (stereo not drawn) | 906 s
Cc1cc2[nH]c(C(=O)Nc3cccc(F)c3C)c(CN3CCOCC3)c2s1 | 731 s
O=S(=O)(c1cc(-c2nnc(C3CCC3)o2)co1)N1CCN(c2ccccn2)CC1 | 671 s
O=C(NCCCN1CCCC1)C1c2ccccc2CC(=O)N1Cc1ccccc1 (stereo not drawn) | 604 s
Cc1nn(-c2ccccc2)c(C)c1S(=O)(=O)N1CCC(C(=O)Nc2ccc(F)c(Cl)c2)CC1 | 1050 s
Cc1ccc(Cl)cc1N1CCN(c2ncc(S(=O)(=O)c3ccccc3)c(N)n2)CC1 | 1250 s
Cc1ccc(-c2cn3c(CC(=O)Nc4ccc(Cl)cc4)csc3n2)cc1C | 940 s
CCOc1ccccc1N1CCN(S(=O)(=O)c2nn(C)cc2C(=O)NC2CCCC2)CC1 | 1030 s

SMILES | RP-LC retention time
Cc1ccc(Nc2c(-c3ccc(C(=O)O)cc3)nc3cnccn23)cc1 | 766 s
CCC(C)NS(=O)(=O)c1cc(-c2c(C)noc2NC(C)=O)ccc1OC (stereo not drawn) | 720 s
CCNC(=O)C1CCCN1C(=O)Nc1ccccc1 (stereo not drawn) | 619 s
Cc1ccc2[nH]c(C(N)=O)c(N3CCCC3=O)c2c1 | 646 s
CCS(=O)(=O)N1CCCc2cc(C(=O)Nc3cccc(Br)c3)ccc21 | 1040 s
CS(=O)(=O)Nc1cccc(NC(=O)Cn2cccn2)c1 | 970 s
CC1=C(c2ccccc2)S(=O)(=O)N=C1N1CCCN(C(=O)C2CCCC2)CC1 | 814 s
COc1ccc(N2CCN(C(=O)NC3CCOCC3)CC2)cc1 | 599 s
Cc1ccc(N2C=C(C(=O)N3CCOCC3)S(=O)(=O)c3ccc(F)cc32)cc1 | 814 s
O=C(NCCc1ccccc1)N1CCCC1c1nc(-c2ccccc2)no1 (stereo not drawn) | 922 s
CCOC(=O)c1nc(N(C)c2ccccc2C)c2ccccc2n1 | 916 s
Cc1cc(-c2nnc(C3CC3)o2)c(C)n1CC(=O)Nc1ccc(N2CCOCC2)cc1 | 700 s
COc1cc(OC)c(NC(=O)CN2C(=O)NC(c3ccc(Cl)cc3)C3=C2COC3=O)cc1Cl (stereo not drawn) | 858 s
COc1cccc(-c2c(C(=O)O)nnn2-c2ccc3c(c2)OCCO3)c1 | 744 s
COC(=O)Cn1c(C2CC(=O)N(c3ccc(OC)cc3)C2)nc2ccccc21 (stereo not drawn) | 709 s
COc1ccc(-c2ccc(=O)n(Cc3nc(-c4ccc(F)cc4)no3)n2)cc1OC | 892 s
CCC(=O)Nc1ccc2c(c1)Sc1ncccc1C(=O)N2CC | 655 s
CCn1cc(C(=O)Nc2ccc(Br)cc2)c2nn(-c3ccccc3)c(=O)c-2c1 | 1090 s
CCOC(=O)c1cc(C)nc2c1c(=O)n(Cc1cccc(C)c1)c(=O)n2C | 1130 s

SMILES | RP-LC retention time
O=C(C1CCOC1)N1CCC(N(Cc2ccccc2)C2CCOCC2)CC1 (stereo not drawn) | 572 s
COc1cccc(C(=O)NC2CCN(c3cc(-c4cccs4)[nH]n3)C2)c1OC (stereo not drawn) | 722 s
CN(C)c1ccc(/C=C/C(=O)c2ccccc2)cc1Br | 1170 s
Cc1ccc(Cn2c(=O)n(CCNC(=O)c3cccn3C)c3ncccc32)cc1 | 822 s
O=[N+]([O-])c1cccc(CSc2ccc3nnc(-c4cccs4)n3n2)c1 | 789 s
O=C(Cc1csc(Nc2ccc(Cl)cn2)n1)Nc1ccc(OC(F)(F)F)cc1 | 1030 s
CC(C)(C)c1ccc2c(c1)N(Cc1nc(-c3ccccc3Cl)no1)C(=O)CO2 | 1240 s
CCC(C)NC(=O)N1c2cccnc2N(C(C)C)C(=O)C1C (stereo not drawn) | 850 s
COc1cccc(N2CCN(S(=O)(=O)c3nn(C)cc3C(=O)NC3CC3)CC2)c1 | 818 s
CS(=O)(=O)c1ccc2nc(NC(=O)C3COCC(=O)N3Cc3ccccc3)sc2c1 (stereo not drawn) | 649 s
CCCN1CCN(c2cc(C(=O)O)c3cc(NS(=O)(=O)c4ccc(OCC)cc4)ccc3n2)CC1 | 624 s
CCOc1ccc(OCC)c(NS(=O)(=O)c2cc(-c3cc(CC)no3)cs2)c1 | 1090 s
O=C(NC1CC1)C1CCN(S(=O)(=O)c2cc(-c3noc(C4CC4)n3)cs2)CC1 | 790 s
Cc1ccc(Cn2cc(-c3ccncc3)cc2C(=O)NCCN(C)C)cc1 | 570 s
O=C(Nc1cccc(F)c1)C1CC(=O)N(c2ccc3c(c2)CCN3C(=O)C2CCC2)C1 (stereo not drawn) | 839 s
Cc1cccc(-c2nnc(-c3nc(NCc4cccnc4)c4ccccc4n3)o2)c1 | 691 s
OC(CNCc1ccc(-c2cc(Cl)ccc2Cl)o1)c1ccccc1 (stereo not drawn) | 762 s
NC[C@@](O)(c1ccc(Cl)cc1)c1ccc(-c2cn[nH]c2)cc1 | 678 s

Further lines, results first:

RP-LC retention time | SMILES
1010 s | Cc1cccc(CNC(=O)C2CCCN(S(=O)(=O)c3cc(-c4noc(C)n4)cs3)C2)c1 (stereo not drawn)
906 s | COc1cc(C(=O)N2CC(=O)Nc3ccc(F)cc3C2c2ccccc2)cc(OC)c1OC (stereo not drawn)
703 s | CCN1CCCC1CNC(=O)c1nnc(-c2ccc(S(=O)(=O)N3CCC(C)CC3)cc2)o1 (stereo not drawn)
650 s | CCOC(=O)C1=C(CN2CCC(C(=O)OCC)CC2)NC(=O)NC1c1ccc(F)cc1 (stereo not drawn)
723 s | COCC(=O)N1CCCN(C2=NS(=O)(=O)C(c3ccc(Cl)cc3)=C2C)CC1
615 s | O=C(Cn1ncc2c(N3CCN(c4ccccn4)CC3)ncnc21)Nc1cc(F)ccc1F
1240 s | O=C(Nc1ccccc1Br)c1c(O)c2cccc3c2n(c1=O)CC3
925 s | CCn1cc(-c2nc(C)c(C(=O)NCc3ccc4c(c3)OCO4)s2)c2cccnc21
673 s | O=S(=O)(NCc1cccnc1)c1cc(-c2nnc(-c3ccccc3)o2)ccc1F
607 s | O=C(CCc1cc2ccccc2[nH]c1=O)NCCN1CCc2ccccc2C1
623 s | Cc1n[nH]c(C)c1S(=O)(=O)N1CCC(c2nnc(C3CC3)s2)CC1
654 s | Cc1ccn2cc(-c3ccc(NC(=O)Nc4ccc(F)cc4)cc3)nc2n1
728 s | Cn1nc(C(=O)N2CCCC2)c2c1CCN(C(=O)Nc1cc(F)ccc1F)C2
593 s | CCOC(=O)c1c(C)[nH]c(C(=O)N2CCCC(C(=O)NCCN3CCOCC3)C2)c1C (stereo not drawn)
1230 s | O=S(=O)(c1ccc(F)c(F)c1)N1CCc2nc(-c3ccc(Cl)cc3)ncc2C1
1040 s | CCc1ccccc1NC(=O)CSc1cc(N2CCN(c3ccccc3OC)CC2)ncn1

RP-LC retention time | SMILES
786 s | O=C(C1=CN(c2cc(F)cc(F)c2)c2ccccc2S1(=O)=O)N1CCCC1
723 s | Clc1cccc(CN2CCCN(c3ncccc3-c3nc(C4CC4)no3)CC2)c1
1150 s | Cc1noc(C)c1S(=O)(=O)N1CCC2(CC1)CC(Cc1ccc(F)cc1)CCO2 (stereo not drawn)
556 s | O=C(CSc1nnc(CCc2nc3ccccc3[nH]2)o1)Nc1nccs1
996 s | Cc1ccc(N2C(=O)C3N=NN(Cc4nc(-c5ccccc5Cl)no4)C3C2=O)cc1 (stereo not drawn)
1340 s | Cc1cc(C)c(S(=O)(=O)N2CCCC2c2nc(-c3ccc(Cl)cc3)no2)cc1C (stereo not drawn)
804 s | O=C(c1cccc2[nH]ccc12)N1CCC2(CC1)N=C(c1ccc(Cl)cc1)NO2
654 s | Cc1nc(-c2cccnc2)nc2c1CC(=O)N2C(C)C
862 s | CC(CCc1ccco1)NC(=O)c1nnn(-c2ccccc2)c1-c1ccccn1 (stereo not drawn)
694 s | COc1ccc(NC(=O)c2cn3c(n2)CSCC3)cc1F
1170 s | O=S(=O)(Nc1cccc(F)c1)c1ccccc1-c1nc(-c2ccccc2)no1
616 s | COc1cc(S(N)(=O)=O)c(OC)cc1N
854 s | O=C(c1cn2ccccc2n1)N1CCN(c2ccccc2Cl)CC1
795 s | Cc1nc2c([nH]1)CCN(C(=O)c1ccc(NC(=O)c3ccccc3-c3ccccc3)cc1)c1ccccc1-2
658 s | Cn1cnc(S(=O)(=O)N2CCOc3ccc(NC(=O)C4CC4)cc3C2)c1
952 s | Cc1ccc(Cn2c(N3CCCC(C(=O)NCc4cccs4)C3)nc3ccsc3c2=O)cc1 (stereo not drawn)
